The target of the assay is human GLP1R (Homo sapiens, UniProt P43220). The assay can be described thus: Human GLP1R DERET internalization assay. It counts as cell-based. As to conditions: HEK293-SNAP-hGLP1R-GloSensor cells; for EC50: mean n=2; for Emax: relative to GLP1(7-36). In a few lines:
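HEK293 cells stably expressing SNAP-tagged hGLP1R, labelled with SNAP-Lumi-Tb, then exposed at 37 °C to 3-fold compound dilutions (top 30 μM) with 25 μM fluorescein. Donor/acceptor TR-FRET ratio read every 30 min. EC50 and Emax from 4-parameter fits, normalised to the GLP1(7-36) EC100 (top 1 μM) and buffer-only EC0 wells.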

A value given as a limit tells only on which side of the number the result lay.

The values below come from US20240182456A1, “2-((4-((S)-2-(4-CHLORO-2-FLUOROPHENYL)-2-METHYLBENZO[D][1,3]DIOXOL-4-YL)PIPERIDIN-1-YL)METHYL)-1-(((S)-OXETAN-2-YL)METHYL)-1H-IMIDAZOLE DERIVATIVES AS ACTIVATORS OF THE GLP1 RECEPTOR FOR THE TREATMENT OF OBESITY” (Novartis AG, priority 2021, published 2024).

human GLP1R, sequence (P43220 24-463): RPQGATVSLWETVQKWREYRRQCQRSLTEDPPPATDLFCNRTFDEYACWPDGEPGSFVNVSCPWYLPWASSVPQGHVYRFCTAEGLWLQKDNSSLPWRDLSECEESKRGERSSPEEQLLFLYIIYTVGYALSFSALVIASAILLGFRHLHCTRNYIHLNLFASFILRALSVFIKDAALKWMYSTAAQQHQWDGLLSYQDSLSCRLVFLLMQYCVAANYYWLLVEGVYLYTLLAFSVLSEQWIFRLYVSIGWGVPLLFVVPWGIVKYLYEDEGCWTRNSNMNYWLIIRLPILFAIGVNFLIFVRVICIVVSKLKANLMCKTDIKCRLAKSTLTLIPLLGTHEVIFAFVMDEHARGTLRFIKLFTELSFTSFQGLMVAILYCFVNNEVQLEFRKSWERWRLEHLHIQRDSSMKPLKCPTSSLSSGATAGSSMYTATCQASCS

In the case of `C[C@]1(c2ccc(Cl)cc2F)Oc2cccc(C3CCN(Cc4nc(/C=C/C(=O)O)cn4C[C@@H]4CCO4)CC3)c2O1` [Compound C-2, (E)-3-(2-((4-((S)-2-(4-chloro-2-fluorophenyl)-2-methylbenzo[d][1,3]dioxol-4-yl)piperidin-1-yl)methyl)-1-(((S)-oxetan-2-yl)methyl)-1H-imidazol-4-yl)acrylic acid], the EC50 is above 30 µM and the maximal effect (Emax) amounted to 5%.

The molecule `Cc1nc(CN2CCC(c3cccc4c3O[C@@](C)(c3ccc(Cl)cc3F)O4)CC2)n(C[C@@H]2CCO2)c1/C=C/C(=O)O` [Compound C-5, (E)-3-(2-((4-((S)-2-(4-chloro-2-fluorophenyl)-2-methylbenzo[d][1,3]dioxol-4-yl)piperidin-1-yl)methyl)-4-methyl-1-(((S)-oxetan-2-yl)methyl)-1H-imidazol-5-yl)acrylic acid] displayed an EC50 of 0.089 µM and an Emax of 58%.

Turning to `C[C@]1(c2ccc(Cl)cc2F)Oc2cccc(C3CCN(Cc4nc(C(F)(F)F)c(C(=O)O)n4C[C@@H]4CCO4)CC3)c2O1` [Compound C-7, 2-((4-((S)-2-(4-chloro-2-fluorophenyl)-2-methylbenzo[d][1,3]dioxol-4-yl)piperidin-1-yl)methyl)-1-(((S)-oxetan-2-yl)methyl)-4-(trifluoromethyl)-1H-imidazole-5-carboxylic acid], the EC50 is above 30 µM and the Emax was 3%.

In turn, `C[C@]1(c2ccc(Cl)cc2F)Oc2cccc(C3CCN(Cc4ncc(/C=C/C(=O)O)n4C[C@@H]4CCO4)CC3)c2O1` [Compound C-1, (E)-3-(2-((4-((S)-2-(4-chloro-2-fluorophenyl)-2-methylbenzo[d][1,3]dioxol-4-yl)piperidin-1-yl)methyl)-1-(((S)-oxetan-2-yl)methyl)-1H-imidazol-5-yl)acrylic acid] came in with an EC50 of 0.336 µM and an Emax of 67%.

For orientation: EC50 means the concentration that produces a half-maximal response. A low value points to an effect from little substance. As usually defined, the Emax is the greatest response seen or fitted, relative to the assay's reference.
